Reference: the supplement of paper PMC10949913

Columns and labels:
Assay in all cases: area under concentration-response curve (viability) (AUC (a.u.)); higher = less active
Conditions in all cases: 48 h
NCI-H295R = tested on: NCI-H295R
Outline: (§1)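 Three adrenocortical carcinoma cell lines were exposed for 48 h to library compounds at 11 concentrations in 1,536-well plates, then read by CellTiter-Glo luminescence. Signals were scaled per plate against vehicle and empty-well controls. From fitted concentration-response curves of inhibitory or non-responding classes alone, AC50 and area under the curve were obtained.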

CU-ACC1 = tested on: CU-ACC1
Outline: as §1

CU-ACC2 = tested on: CU-ACC2
Outline: as §1

| Compound | area under concentration-response curve (NCI-H295R) | area under concentration-response curve (CU-ACC1) | area under concentration-response curve (CU-ACC2) |
| --- | --- | --- | --- |
| COc1nc(C)nc(Cl)c1NC1=NCCN1 | 504 | 468 | 436 |
| Nc1nc(N)c2nc(-c3cccc(O)c3)c(-c3cccc(O)c3)nc2n1 | 483 | 448 | 499 |
| O=C(O)CCNc1cc(N2CCc3ccccc3CC2)nc(-c2cccnc2)n1 | 533 | 538 | 636 |
| CC(C)N(CCCNC(=O)Nc1ccc(C(C)(C)C)cc1)C[C@H]1O[C@@H](n2ccc3c(N)ncnc32)[C@H](O)[C@@H]1O | 578 | 537 | 656 |
| CN(C)[C@H]\1[C@@H]2C[C@@H]\3CC4=C(C(=C(NC(=O)CNC(C)(C)C)C=C4N(C)C)O)C(=O)C3=C(O)/[C@@]2(O)C(=O)\C(=C1O)C(N)=O | 379 | 380 | 452 |
| O=C(O)CCNC(=O)c1ccc(/N=N/c2ccc(O)c(C(=O)O)c2)cc1 | 589 | 519 | 635 |
| COc1cccc(Nc2c(C(N)=O)cnc3c(C)cc([S+](=O)([O-])c4cccc(C(=O)N(C)C)c4)cc23)c1 | 545 | 466 | 578 |
| C\C1=C(\SSC1=S)C2=CN=CC=N2 | 569 | 524 | 618 |
| CC1(C)CCC(C)(C)c2cc(NC(=O)c3ccc(C(=O)O)cc3)ccc21 | 443 | 468 | 495 |
| CO[C@H](C1COC1)C2=C(Cl)C3=C(CCN(C\C4=C(OC)\C=C(\C)NC4=O)C3=O)C(=C2)Cl | 536 | 496 | 579 |
| CNC(=O)Cn1cc(-c2ccc3c(c2)C(F)CC32NC(=O)N(CC(=O)N(Cc3ccc(F)cc3)[C@@H](C)C(F)(F)F)C2=O)cn1 (some centres undefined) | 504 | 517 | 549 |
| CC(=O)OCC(=O)[C@@]12\N=C(C)/O[C@@H]1C[C@H]3[C@@H]4CCC/5=C/C(=O)/C=C\[C@]5(C)[C@H]4[C@@H](O)C[C@]23C | 514 | 483 | 581 |
| [O-][S+]1(=O)/N=C(/NC2=CC(=CC=C2)NC(=O)CCl)C3=CC=CC=C13 | 528 | 446 | 557 |
| CNc1nc(C)nc(N[C@H]2CCC[C@@H](C(=O)NCc3ccc(C#N)cc3C(F)(F)F)C2)n1 | 496 | 497 | 593 |
| COc1ccc2c(C(=S)N(C)CC(=O)O)cccc2c1C(F)(F)F | 481 | 490 | 535 |
| O=C(Cc1ccccc1)Nc1nnc(CCSCCc2nnc(NC(=O)Cc3ccccc3)s2)s1 | 507 | 509 | 532 |
| CN1CCN(CC1)C\2=C\3/C=C(/C)SC3=N/C4=CC=CC=C4N2 | 555 | 556 | 513 |
| CC[C@@]1(O)C(=O)OCC/2=C1/C=C/3N(CC4=C(CCNC(C)C)C5=CC=CC=C5N=C34)C2=O | 654 | 538 | 611 |
| COC/1=C/[C@@H]2[C@@H]3CC4=C(C(=C(OC)C=C4)O)[C@]2(CCN3C)CC1=O | 479 | 457 | 519 |
| Cc1cn2cc(C(=O)N(C)CCO)cc(N[C@@H]3CCOc4cccc(C)c43)c2n1 | 581 | 534 | 620 |
| CC(=O)NC(C)c1ccc(Oc2ccc(OC(C)C)cc2)cc1 (centres undefined) | 547 | 539 | 605 |
| C[Se]CCC(N)C(=O)O (centres undefined) | 479 | 540 | 550 |
| Cc1[nH]c(/C=C2\C(=O)Nc3ccccc32)c(C)c1CCC(=O)O | 480 | 496 | 535 |
| CC(C)(O)C(=O)Nc1ccc([N+](=O)[O-])c(C(F)(F)F)c1 | 537 | 505 | 602 |

| Compound | area under concentration-response curve (NCI-H295R) | area under concentration-response curve (CU-ACC1) | area under concentration-response curve (CU-ACC2) |
| --- | --- | --- | --- |
| CN1CC[C@@H](NC(=O)Nc2ccc(C#N)cc2)C[C@@H]1c1nc2ccccc2[nH]1 | 555 | 485 | 595 |
| O=C(O)CCCCN(CCc1ccccc1OCc1ccc(CCc2ccccc2)cc1)Cc1ccc(C(=O)O)cc1 | 495 | 471 | 561 |
| Cn1c(COP(=O)(NCCBr)NCCBr)cnc1[N+](=O)[O-] | 514 | 394 | 575 |
| c1ccc2[nH]c(-c3cscn3)nc2c1 | 556 | 557 | 630 |
| CCCC1OC2C[C@H]3[C@@H]4CCC5=CC(=O)C=C[C@]5(C)[C@H]4C(O)C[C@]3(C)[C@]2(C(=O)CO)O1 (some centres undefined) | 607 | 562 | 661 |
| O=C(O)c1ccccc1-c1ccc(/C=c2\sc3nc4cc(Br)cnc4n3c2=O)o1 | 549 | 491 | 457 |
| CC[C@@H](C(N)=O)N1CCCC1=O | 545 | 532 | 520 |
| CCCCCCCc1ccc(CCc2cccc(O)c2C(=O)O)cc1 | 534 | 515 | 574 |
| C#CCN(C)[C@H](C)Cc1ccccc1 | 434 | 467 | 457 |
| CCN1/C(=C/C(C)=O)Sc2ccc(OC)cc21 | 515 | 467 | 569 |
| CCCNC(=O)c1cn2ncnc(Nc3cc(C(=O)NC4CC4)ccc3C)c2c1C | 583 | 539 | 654 |
| CC[S+](=O)([O-])c1ccc2oc(-c3ccc4ccccc4c3)nc2c1 | 514 | 538 | 602 |
| C/C(O)=C(\C#N)C(=O)Nc1ccc(C(F)(F)F)cc1 | 524 | 503 | 607 |
| N#C/C(=C\c1ccc(O)c(O)c1)C(=O)NCc1ccccc1 | 572 | 427 | 605 |
| Cc1noc(-c2ccc(-c3ccc(C4(C(=O)O)CC4)cc3)cc2)c1NC(=O)O[C@H](C)c1ccccc1 | 526 | 485 | 446 |
| CN1C2CCC1CC(OC(=O)C(CO)c1ccccc1)C2 (centres undefined) | 396 | 408 | 396 |
| NC/1=N/C(=O)N(C[C@@H](CO)OC[P](O)(O)=O)/C=C1 | 496 | 465 | 522 |
| OC1CCC(Nc2ncc3nc(Nc4c(F)cc(F)cc4F)n([C@@H]4CCOC4)c3n2)CC1 (some centres undefined) | 446 | 464 | 531 |
| CC[N+](CC)(CC)CCOc1cccc(OCC[N+](CC)(CC)CC)c1OCC[N+](CC)(CC)CC | 474 | 412 | 472 |
| CC(C)(C)c1cc(C(=O)O)c(NC(=O)Nc2ccc3[nH]ncc3c2)s1 | 582 | 551 | 614 |
| OC(COC1=C2C(=O)\C=C(/OC2=CC=C1)C([O-])=O)COC3=C4C(=O)\C=C(/OC4=CC=C3)C([O-])=O | 555 | 527 | 624 |
| COC1=CC(=CC=C1)C2=CC=C(NC(=O)/C3=C(/CCC3)C(O)=O)C(=C2)F | 491 | 450 | 509 |
| Cn1cnc(N)c2ncnc1-2 | 448 | 438 | 467 |
| Cc1ccccc1C(C(=O)NC1CCCCC1)N(C(=O)Cn1ccnc1C)c1cccc(F)c1 (centres undefined) | 539 | 519 | 593 |
